Assay results as given in patent publication US4530932A, “4-(1H-indol-3-yl)-α-methyl-piperidine-1-ethanol derivatives” (Roussel Uclaf, priority 1982, dated 1985).
Counter-ions that a name gives are not always drawn. Like-named read-outs stand apart in the source and are kept apart here.

How the values were obtained:
[1] = tested on: Rat arteries (arterial contractions, entry of calcium ions into the cells of smooth muscles); assay: In vitro anticalcic activity (inhibition of potassium-depolarized, calcium-induced contractions of isolated rat arteries); type: cell-based; settings: dose inhibiting by 50% the contractions caused by potassium ions (100 mM), 37° C., read-out: CI50 (the source's name)
Method: Rat arteries decoupled in a spiral were attached to a tension collector and were maintained in tanks containing 2.5 ml of Krebs-sodium bicarbonate buffer (NaCl: 120.8 mM, KCl: 5.9 mM, MgCl2 : 1.2 mM, NaH2 PO4 : 1.2 mM, NaHCO3 : 15.5 mM, glucose: 12.6 mM), at 37° C. covered with a 95%-5% oxygen-carbon dioxide mixture. The preparations were depolarized with a buffered solution containing 100 mM of potassium ions (NaCl: 26.7 mM, KCl: 100 mM, MgCl2 : 1.2 mM, NaH2 PO4 : 1.2 mM, NaHCO3 : 15.5 mM, glucose 12.6 mM).
A volume of 25 μl of calcium chloride was added to the mixture in a manner to obtain a range of increasing concentrations of calcium ions from 0.1 to 3.0 mM and the contractions of the artery were measured to obtain a control. The operation with range of calcium ions was repeated every 15 minutes and the preparation was washed 4 times after each range. When a stable response was obtained, the operation with the range of calcium ions was effected in the presence of varying concentrations of test compounds until a stable response was obtained.
The arterial contractions depend on the entry of calcium ions into the cells of smooth muscles and are provoked by depolarization of smooth muscles by potassium ions and by action of noradrenaline freed by presynapthic level. By recommencing the operation with denerved arteries by the action of 6-hydroxy-dopamine, the specific action due to noradrenaline is suppressed.

[2] = tested on: cardiac rhythm troubles in guinea pigs; assay: Antiarythmic action (K-strophanthine and adrenaline induced cardiac rhythm troubles); type: in vivo, guinea pig; settings: Cavia porcellus, 1 h, oral 10 mg/kg, one hour before K-strophanthine and adrenaline perfusion, read-out: Percentage of protection (lengthening of the time of appearance of cardiac rhythm troubles as compared to controls)
Method: Male guinea pigs weighing between 450 and 500 g were tracheotomized while anesthesized by intraperitoneal administration of […] of urethane and were subjected to artifical respiration of 40 to 50 breaths of 5 ml per minute. Needles were subcutaneously implanted to register an electrocardiogram of the guinea pigs for the signal of D II derivation. The test products were orally administered and one hour later, the jugular vein of the guinea pigs were perfused with 0.5 ml per minute of a solution of 150 γ/ml of K-strophanthine and 0.5 ml per minute of a solution of 5 γ/ml of adrenaline and the number of times of the appearance of cardiac rhythm troubles was noted. The results are expressed in percentage of protection with an oral dose of 10 mg/kg of test product that is to say the percentage of lengthening of the time of appearance of cardiac rhythm troubles as compared to the controls.

[3] = tested on: carotidien arterial pressure in rats; assay: Hypotensive activity (carotidien arterial pressure in anesthesized rats); type: in vivo, rat (Wistar); settings: rat, intravenous
Method: The hypotensive activity was studied on male rats of the Wistar strain weighing about 300 g and anesthesized with 50 mg/kg of nembutal intraveinously. The test products were administered intraveinously by the jugular vein and the carotidien arterial pressure was measured before and after administration of the test compounds. The variations expressed in percentage of arterial pressure after administration with respect to the initial pressure is reported in Table IV.

α1 adrenergic receptors = assay: Affinity for α1 adrenergic receptors (3H prazosine displacement, rat brain); type: binding; settings: relative to phentolamine (ARL=100×(CB/CX)), 25° C., pH 7.7
Method: After centrifugation at 30,000 g for 15 minutes at 0° to 4° C., the culot was suspended in 240 ml of buffer Tris HCl 50 mM (pH-7.7) and the suspension was centrifuged at 30,000 g for 20 minutes at 0° to 4° C. The new culot was suspended in 480 ml of buffer Krebs Tris HCl (pH of 7.7-50 mM) and 2 ml of the suspension in the presence of 3H prazosine at a concentration of […] alone and with increasing concentrations of the test compound or with non-radioactive phentolamine at a concentration of 10^-5 M to determine the non-specific fixation was incubated at 25° C. for 30 minutes.
The incubated suspensions were filtered through Whatman FG/C and the filtered were washed with 3 times with 5 ml of buffer Krebs Tris HCl-pH of 7.7 at 0° to 4° C. The radioactivity of the filters was measured by liquid scintillation and the affinity of the test compound for α1 adrenergic receptors was compared relative to phentolamine as the reference compound by the formula
CD=concentration of phentolamine inhibiting by 50% the specific fixation of 3H prazosine.
CX=concentration of test product inhibiting by 50% the specific fixation of 3H prazosine.

β1 adrenergic receptors = molecular target: T1, β1 adrenergic receptors (Rattus norvegicus, UniProt P18090); assay: Affinity for β1 adrenergic receptors (3H dihydroalprenolol displacement, rat brain cortex); type: binding; settings: relative to propranolol, 37° C., pH 7.7
T1 construct: 10 cortexes removed from the brains of male rats weighing an average of 150 g; from tissue; host or cells: cerebral cortex of male rats (membranes)
Method: The test was inspired by that of Mohler et al [Science, Vol. 198 (1977), p. 849-851] and 10 cortexes removed from the brains of male rats weighing an average of 150 g were homogenized in 90 ml of 0.32M of sucrose. After centrifuging the homogenized mixture at 1000 g for 20 minutes at 0° C., the surnageant was centrifuged at 30,000 g for 15 minutes at 0° to 4° C. The culot was suspended in 120 ml of buffer Tris HCl 50 mM with a pH of 7.7 and was centrifuged at 30,000 g for 15 minutes at 0° to 4° C. The resulting culot was suspended in 480 ml of buffer Krebs Tris HCl (50 mM-pH of 7.7) and 2 ml of the suspension in the presence of 3H dihydroalprenolol at a concentration of 10^-9 M alone and with increasing concentrations of the test compound or with non-radioactive propranolol at a concentration of 10^-5 M to determine the non-specific fixation was incubated at 37° C. for 10 minutes.
The incubated suspensions were filtered through Whatman GF/C and the filters were washed 3 times with 5 ml of buffer Krebs Tris HCl (pH-7.7) at 0° C. The radioactivity of the filters was measured by liquid scintillation and the affinity of the test compounds for β1 -adrenergic receptors was compared using propranolol as a standard as in Test D. The results are reported in Table VI.

β2 -adrenergic receptors = molecular target: T2, β2 -adrenergic receptors (Rattus norvegicus, UniProt P10608); assay: Affinity for β2 adrenergic receptors (3H dihydroalprenolol displacement, rat cerebellum); type: binding; settings: relative to propranolol, 37° C., pH 7.7
T2 construct: cerebellums of male rats weighing an average of 150 g; from tissue; host or cells: cerebellum of male rats (membranes)
Method: The technique was inspired by that of Mohler et al [Science, Vol. 198 (1977), p. 849-851] and the cerebellums of male rats weighing an average of 150 g were homogenized in 90 ml of 0.32M sucrose. After centrifugation of the homogenized mixture at 1000 g for 20 minutes at 0° C., the surnageant was centrifuged at 30,000 g for 15 minutes at 0° to 4° C. The culot was suspended in 120 ml of buffer Tris HCl (50 mM-pH of 7.7) and the suspension was centrifuged at 30,000 g for 15 minutes at 0° to 4° C. The resulting culot was suspended in 480 ml of buffer Krebs Tris HCl with a pH of 7.7 and 2 ml of the suspension was incubated at 37° C. for 10 minutes in the presence of 3H dihydroalprenolol at a concentration of 10^-9 M alone and with increasing concentrations of the test compound or with 10^-5 M of non-radioactive propranolol to determine the non-specific fixation.
The incubated suspensions were filtered through Whatman FG/C filter and the filters were rinsed 3 times with 5 ml of buffer Krebs Tris HCl with a pH of 7.7 at 0° C. The radioactivity of the filters was measured by liquid scintillation and the affinity of the test compounds for β2 -adrenergic receptors relative to propranolol as a standard was determined similar as to Test D. The results are reported in Table VII.

mice = assay: Acute toxicity (DL0, oral); type: in vivo, mouse; parameters: unit not given here
[4] = 1 min, 1 minute, read-out: % Variation of arterial pressure after administration, 1 minute
[5] = 5 min, 5 minutes, read-out: % Variation of arterial pressure after administration, 5 minutes
[6] = 10 min, 10 minutes, read-out: % Variation of arterial pressure after administration, 10 minutes
[7] = 0.5 h, 30 minutes, read-out: % Variation of arterial pressure after administration, 30 minutes

T1 sequence (P18090 whole entry): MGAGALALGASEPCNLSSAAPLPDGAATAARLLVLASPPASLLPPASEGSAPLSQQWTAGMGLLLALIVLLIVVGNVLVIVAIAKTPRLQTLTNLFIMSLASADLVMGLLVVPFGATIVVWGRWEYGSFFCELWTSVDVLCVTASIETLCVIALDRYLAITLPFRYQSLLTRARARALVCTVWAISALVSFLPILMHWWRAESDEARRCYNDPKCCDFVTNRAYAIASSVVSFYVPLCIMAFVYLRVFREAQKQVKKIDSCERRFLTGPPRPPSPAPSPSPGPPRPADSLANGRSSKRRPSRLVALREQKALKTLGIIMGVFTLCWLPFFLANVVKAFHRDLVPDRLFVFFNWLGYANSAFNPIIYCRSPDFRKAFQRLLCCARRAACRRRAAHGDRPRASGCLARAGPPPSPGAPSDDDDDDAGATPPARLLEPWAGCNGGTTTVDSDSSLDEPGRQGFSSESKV
T2 sequence (P10608 whole entry): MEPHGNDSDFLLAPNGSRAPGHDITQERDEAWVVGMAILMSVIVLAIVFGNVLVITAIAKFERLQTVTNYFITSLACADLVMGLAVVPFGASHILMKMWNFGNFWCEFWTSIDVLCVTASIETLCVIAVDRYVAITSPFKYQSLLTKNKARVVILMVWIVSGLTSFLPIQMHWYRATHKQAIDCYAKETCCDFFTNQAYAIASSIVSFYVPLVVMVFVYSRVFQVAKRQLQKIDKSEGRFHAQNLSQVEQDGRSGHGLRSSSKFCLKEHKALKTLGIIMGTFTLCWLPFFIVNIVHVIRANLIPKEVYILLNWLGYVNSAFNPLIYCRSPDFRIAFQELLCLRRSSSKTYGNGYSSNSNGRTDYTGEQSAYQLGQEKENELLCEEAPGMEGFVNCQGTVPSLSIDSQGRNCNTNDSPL

SMILES	IC50 [1]	change in vivo at 10 mg/kg [2]	change in vivo at 1 mg/kg [3, 4]	change in vivo at 1 mg/kg [3, 5]	change in vivo at 1 mg/kg [3, 6]	change in vivo at 1 mg/kg [3, 7]	% Arl (relative affinity for α1 adrenergic receptors) (α1 adrenergic receptors)	ARL in % (relative affinity for β1 adrenergic receptors) (β1 adrenergic receptors)	ARL in % (relative affinity for β2 adrenergic receptors) (β2 -adrenergic receptors)	DL0 (maximum dose which did not cause any deaths after 8 days) (mice)
N#Cc1ccccc1OCC(O)CN1CCC(c2c[nH]c3ccccc23)CC1 (stereo not drawn) [Example 4, 4-(1H--indol-3-yl)-α-[2-cyanophenoxymethyl]-piperidine-1-ethanol hydrochloride]	3.5 µM	148%	-24%	-21%	-22%	-26%	145%	13.3%	1.1%	> 100
COC(=O)c1ccccc1OCC(O)CN1CCC(c2c[nH]c3ccccc23)CC1 (stereo not drawn) [Example 6, 4-(1H--indol-3-yl)-α-[2-methoxycarbonyl-phenoxymethyl]-piperidine-1-ethanol hydrochloride]	3 µM	37%	-21%	-13%	-13%	0%	253%	1.3%	3.5%	80
CC(=O)c1ccccc1OCC(O)CN1CCC(c2c[nH]c3ccccc23)CC1 (stereo not drawn) [Example 17, 4-(1H--indol-3-yl)-α-[2-(acetyl-phenoxymethyl]-piperidine-1-ethanol hydrochloride]	6 µM	142%	-17%	-5%	-18%	-6%	159%	1.2%	3.3%	> 100
